Experimental data reported in ChEMBL document CHEMBL4602647, “Protective effects of 10,11-dihydro-5H-dibenzo[b,f]azepine hydroxamates on vascular cognitive impairment” (Eur J Med Chem, 2020).
Active and inactive are the calls of the source. The rule behind the calls is not given here.

How the values were obtained:
Mus musculus [1] = assay: Anti-vascular cognitive impairment activity against bilateral common carotid artery occlusion-induced vascular dementia C57BL/6J mouse model assessed as ratio of cerebral blood flow in right parietal area at 25 mg/kg, ip administered post surgery measured after 3 months (reference value: 0.761 +/- 0.037); assay type: functional
Mus musculus [2] = assay: Anti-vascular cognitive impairment activity against bilateral common carotid artery occlusion-induced vascular dementia C57BL/6J mouse model assessed as reversal of hippocampal atrophy by measuring increase in ratio of size of hippocampus to lateral ventricle at 25 mg/kg, ip administered post surgery measured after 3 months by 7T-MRI analysis; assay type: functional, organism-based
Mus musculus [3] = assay: Upregulation of acetylated H3K14 protein expression in left side cortex of bilateral common carotid artery occlusion-induced vascular dementia C57BL/6J mouse model at 25 mg/kg, ip measured after 3 months by Western blot analysis; assay type: functional, organism-based
[4] = molecular target: T1, Protein deacetylase HDAC6 (Homo sapiens, UniProt Q9UBN7); assay: Inhibition of recombinant human N-terminal GST-tagged HDAC6 (1 to 1215 residues) expressed in baculovirus infected insect cells using RHK-K(Ac)-AMC as substrate after 90 mins by fluorimetry analysis
T1 sequence (Q9UBN7 whole entry): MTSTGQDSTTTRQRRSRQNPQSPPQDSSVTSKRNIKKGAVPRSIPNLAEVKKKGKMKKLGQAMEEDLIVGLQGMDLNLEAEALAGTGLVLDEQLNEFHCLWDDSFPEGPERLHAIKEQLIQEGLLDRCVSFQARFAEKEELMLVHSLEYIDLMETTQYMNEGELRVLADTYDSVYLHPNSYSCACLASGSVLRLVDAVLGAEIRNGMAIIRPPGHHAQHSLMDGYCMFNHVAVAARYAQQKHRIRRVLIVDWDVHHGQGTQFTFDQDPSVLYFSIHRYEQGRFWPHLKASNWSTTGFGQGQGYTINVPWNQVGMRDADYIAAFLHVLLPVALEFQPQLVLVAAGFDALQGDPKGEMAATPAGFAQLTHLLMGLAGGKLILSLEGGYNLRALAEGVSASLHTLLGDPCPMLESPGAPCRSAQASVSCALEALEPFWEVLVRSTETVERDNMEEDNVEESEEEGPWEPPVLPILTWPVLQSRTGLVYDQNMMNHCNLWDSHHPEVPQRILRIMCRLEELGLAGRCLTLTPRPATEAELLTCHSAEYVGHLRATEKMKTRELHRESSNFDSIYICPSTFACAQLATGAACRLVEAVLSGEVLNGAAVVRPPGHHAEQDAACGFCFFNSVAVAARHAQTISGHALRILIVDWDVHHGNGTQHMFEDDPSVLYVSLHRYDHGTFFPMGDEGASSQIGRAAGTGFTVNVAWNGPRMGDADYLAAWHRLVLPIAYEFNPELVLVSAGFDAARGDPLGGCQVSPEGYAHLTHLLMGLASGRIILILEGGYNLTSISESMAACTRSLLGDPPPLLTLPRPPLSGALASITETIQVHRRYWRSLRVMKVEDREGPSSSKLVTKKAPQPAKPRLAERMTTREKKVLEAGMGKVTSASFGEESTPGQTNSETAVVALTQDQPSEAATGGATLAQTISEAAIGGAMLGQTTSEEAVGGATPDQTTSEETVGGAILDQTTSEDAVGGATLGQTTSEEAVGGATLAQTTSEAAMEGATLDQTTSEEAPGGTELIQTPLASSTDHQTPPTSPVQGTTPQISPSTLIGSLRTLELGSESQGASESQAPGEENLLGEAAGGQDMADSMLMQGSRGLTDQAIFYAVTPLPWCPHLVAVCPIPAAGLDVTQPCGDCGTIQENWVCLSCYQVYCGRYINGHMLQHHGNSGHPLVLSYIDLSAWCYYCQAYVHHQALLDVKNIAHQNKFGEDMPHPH

[5] = Volume of distribution at steady state in Sprague-Dawley rat at 2 mg/kg, iv measured up to 24 hrs; assay type: ADME, organism-based; conditions: in vivo, read-out: Vdss
Histone deacetylase 8 = molecular target: T2, Histone deacetylase 8 (Homo sapiens, UniProt Q9BY41); assay: Inhibition of recombinant C-terminal His-tagged and N-terminal Streptavidin2-tagged human HDAC8 (1 to 377 residues) expressed in baculovirus infected insect cells using RHK-K(Ac)-AMC as substrate after 60 mins by fluorescence assay
T2 sequence (Q9BY41 whole entry): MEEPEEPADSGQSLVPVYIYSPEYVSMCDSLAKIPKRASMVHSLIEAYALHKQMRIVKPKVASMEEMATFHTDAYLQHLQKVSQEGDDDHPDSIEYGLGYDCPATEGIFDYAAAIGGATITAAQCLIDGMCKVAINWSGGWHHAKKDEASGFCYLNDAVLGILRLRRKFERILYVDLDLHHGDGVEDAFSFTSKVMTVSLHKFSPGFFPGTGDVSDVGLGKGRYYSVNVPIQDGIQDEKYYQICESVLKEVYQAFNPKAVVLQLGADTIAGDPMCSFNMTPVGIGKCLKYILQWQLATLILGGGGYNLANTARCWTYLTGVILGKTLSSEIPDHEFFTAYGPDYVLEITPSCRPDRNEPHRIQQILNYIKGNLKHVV

[6] = molecular target: Histone deacetylase 3/Nuclear receptor corepressor 2 (HDAC3/NCoR2) (Homo sapiens, UniProt O15379); assay: biochemical; assay type: cell-based
Sequence of Histone deacetylase 3/Nuclear receptor corepressor 2 (HDAC3/NCoR2) (O15379 whole entry): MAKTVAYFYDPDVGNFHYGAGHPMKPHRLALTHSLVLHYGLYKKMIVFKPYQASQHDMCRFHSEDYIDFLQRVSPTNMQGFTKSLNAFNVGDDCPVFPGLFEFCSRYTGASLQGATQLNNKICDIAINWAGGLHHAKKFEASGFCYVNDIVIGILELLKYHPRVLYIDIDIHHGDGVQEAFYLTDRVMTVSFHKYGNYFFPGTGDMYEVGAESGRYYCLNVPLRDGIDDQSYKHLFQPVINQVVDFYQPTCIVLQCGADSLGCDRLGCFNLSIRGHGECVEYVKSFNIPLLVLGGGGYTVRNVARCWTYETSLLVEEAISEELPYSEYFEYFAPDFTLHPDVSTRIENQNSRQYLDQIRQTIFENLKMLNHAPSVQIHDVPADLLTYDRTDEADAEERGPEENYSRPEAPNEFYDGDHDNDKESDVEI
Sequence of Histone deacetylase 3/Nuclear receptor corepressor 2 (HDAC3/NCoR2) (Q9Y618 whole entry, further chain): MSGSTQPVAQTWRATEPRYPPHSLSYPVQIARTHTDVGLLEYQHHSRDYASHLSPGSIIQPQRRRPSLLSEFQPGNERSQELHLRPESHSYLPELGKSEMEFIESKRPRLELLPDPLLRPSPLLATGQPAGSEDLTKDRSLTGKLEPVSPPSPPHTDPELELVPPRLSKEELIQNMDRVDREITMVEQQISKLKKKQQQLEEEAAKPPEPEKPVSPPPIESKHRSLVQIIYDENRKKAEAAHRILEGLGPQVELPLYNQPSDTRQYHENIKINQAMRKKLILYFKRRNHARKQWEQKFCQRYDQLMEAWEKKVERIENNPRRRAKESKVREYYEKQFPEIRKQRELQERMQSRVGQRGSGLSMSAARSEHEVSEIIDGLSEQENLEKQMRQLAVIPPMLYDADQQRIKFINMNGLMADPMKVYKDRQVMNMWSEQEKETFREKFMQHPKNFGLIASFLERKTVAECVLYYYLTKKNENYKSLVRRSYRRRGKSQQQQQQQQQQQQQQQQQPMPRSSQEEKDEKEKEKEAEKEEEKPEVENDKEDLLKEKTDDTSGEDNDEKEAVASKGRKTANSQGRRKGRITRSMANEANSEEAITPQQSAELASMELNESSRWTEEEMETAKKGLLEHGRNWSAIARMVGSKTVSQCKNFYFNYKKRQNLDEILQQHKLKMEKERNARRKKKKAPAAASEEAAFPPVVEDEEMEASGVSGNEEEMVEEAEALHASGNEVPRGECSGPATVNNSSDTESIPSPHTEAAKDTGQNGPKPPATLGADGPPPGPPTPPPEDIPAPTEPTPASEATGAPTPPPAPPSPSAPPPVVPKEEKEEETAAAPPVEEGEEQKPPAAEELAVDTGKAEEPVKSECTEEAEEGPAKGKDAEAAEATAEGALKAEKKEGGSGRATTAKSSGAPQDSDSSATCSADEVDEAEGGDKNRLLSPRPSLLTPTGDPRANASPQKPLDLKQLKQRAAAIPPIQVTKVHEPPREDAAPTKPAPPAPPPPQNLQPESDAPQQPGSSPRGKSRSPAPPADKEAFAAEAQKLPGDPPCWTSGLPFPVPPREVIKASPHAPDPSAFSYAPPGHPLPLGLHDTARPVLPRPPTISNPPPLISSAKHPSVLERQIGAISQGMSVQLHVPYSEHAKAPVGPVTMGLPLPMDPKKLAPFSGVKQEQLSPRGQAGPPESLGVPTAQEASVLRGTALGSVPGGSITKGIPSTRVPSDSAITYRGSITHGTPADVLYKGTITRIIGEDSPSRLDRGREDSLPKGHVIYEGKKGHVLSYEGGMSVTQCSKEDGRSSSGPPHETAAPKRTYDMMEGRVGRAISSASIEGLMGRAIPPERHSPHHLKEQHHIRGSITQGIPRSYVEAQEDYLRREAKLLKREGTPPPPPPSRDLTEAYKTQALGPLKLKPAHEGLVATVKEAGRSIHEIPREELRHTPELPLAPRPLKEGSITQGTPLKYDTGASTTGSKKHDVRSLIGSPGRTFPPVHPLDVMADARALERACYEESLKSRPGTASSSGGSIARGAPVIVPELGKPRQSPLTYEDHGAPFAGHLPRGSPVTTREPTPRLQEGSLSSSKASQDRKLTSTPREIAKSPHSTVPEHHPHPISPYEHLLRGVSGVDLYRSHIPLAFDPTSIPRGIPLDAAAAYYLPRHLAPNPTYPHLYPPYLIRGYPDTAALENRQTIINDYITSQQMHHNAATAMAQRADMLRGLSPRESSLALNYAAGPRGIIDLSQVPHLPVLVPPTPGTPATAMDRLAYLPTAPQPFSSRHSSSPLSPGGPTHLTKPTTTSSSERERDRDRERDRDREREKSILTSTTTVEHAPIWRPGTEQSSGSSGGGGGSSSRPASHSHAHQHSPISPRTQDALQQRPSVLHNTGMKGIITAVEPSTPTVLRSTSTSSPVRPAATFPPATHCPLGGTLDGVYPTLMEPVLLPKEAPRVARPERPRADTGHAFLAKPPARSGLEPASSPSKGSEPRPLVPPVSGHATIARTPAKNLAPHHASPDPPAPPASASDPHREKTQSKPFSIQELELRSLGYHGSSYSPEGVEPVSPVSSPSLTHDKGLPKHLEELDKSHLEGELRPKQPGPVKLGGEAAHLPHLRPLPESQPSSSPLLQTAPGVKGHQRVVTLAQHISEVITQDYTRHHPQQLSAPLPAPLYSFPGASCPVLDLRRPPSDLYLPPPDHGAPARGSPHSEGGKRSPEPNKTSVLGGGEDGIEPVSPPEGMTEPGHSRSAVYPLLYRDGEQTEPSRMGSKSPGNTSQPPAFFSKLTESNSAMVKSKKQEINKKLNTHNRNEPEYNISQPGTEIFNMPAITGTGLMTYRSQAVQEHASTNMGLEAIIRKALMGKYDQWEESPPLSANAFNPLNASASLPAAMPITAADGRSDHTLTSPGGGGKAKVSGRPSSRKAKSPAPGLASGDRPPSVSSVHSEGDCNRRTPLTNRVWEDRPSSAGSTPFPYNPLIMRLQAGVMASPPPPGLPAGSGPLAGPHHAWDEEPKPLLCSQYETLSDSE

[7] = Half life in Sprague-Dawley rat at 10 mg/kg, po measured up to 24 hrs; assay type: ADME, organism-based; conditions: in vivo
[8] = Aqueous solubility of compound in water incubated at 37 degree C by LC-MS analysis; assay type: physicochemical
Mus musculus [9] = assay: Anti-vascular cognitive impairment activity against bilateral common carotid artery occlusion-induced vascular dementia C57BL/6J mouse model assessed as improvement in short-term non-spatial working memory by measuring increase in novel object recognition at 25 mg/kg, ip administered post surgery measured after 1 to 3 months by novel object recognition test; assay type: functional, organism-based

O=C(/C=C/c1ccc(CNCCCN2c3ccccc3CCc3ccc(Cl)cc32)cc1)NO
Ratio (Mus musculus [1]): 0.923 | Activity (Mus musculus [2]): Active | Activity (Mus musculus [3]): Active | IC50 [4]: 1.27 µM | Vd [5]: 13.8 L/kg | IC50 (Histone deacetylase 8): 0.533 µM | IC50 [6]: 2.86 µM | half-life [7]: 10.9 h | solubility [8]: < 1 µg/mL | Activity (Mus musculus [9]): Active
